Like-named read-outs stand apart in the source and are kept apart here.
How the values were obtained:
PI3K delta (PI3Kd) = biological target: T1, PI3K delta (PI3Kd) (Homo sapiens, UniProt O00329); experiment: kinobeads assay, PI3K delta (dot blot detection); type: binding
T1 construct: endogenous in cells; host or cells: Jurkat cells (ATCC TIB-152, clone E6-1), lysate
Procedure: (§1) The compounds of the present invention as described were tested in the mTOR kinobeads assay as described below. Briefly, test compounds (at various concentrations) and the affinity matrix (1:1 mixture of beads with immobilized phenylthiazole ligand 1 and beads with immobilized phenylmorpholin-chromen ligand; WO 2009/098021) were added to cell lysate aliquots and allowed to bind to the proteins in the lysate sample. After the incubation time the beads with captured proteins were separated from the lysate. Bound proteins were then eluted and the presence of mTOR, PI3K delta (PI3 Kd) and DNA-dependent protein kinase (DNA-PK) was detected and quantified using a specific antibody in a dot blot procedure and the Odyssey infrared detection system. Dose response curves for individual kinases were generated and IC50 values calculated. Kinobeads assays for PI3 kinases (WO-A 2008/015013) and for kinase selectivity profiling (WO 2009/098021) have been previously described.
(§2) The affinity matrix (beads with immobilized phenylmorpholin-chromen ligand) was washed two times with 15 ml of 1×DP buffer containing 0.2% NP40 (IGEPAL® CA-630, Sigma, #13021) and then resupended in 5.5 ml of 1×DP buffer containing 0.2% NP40 (10% beads slurry).
(§3) 5×DP buffer: 250 mM Tris-HCl pH 7.4, 25% Glycerol, 7.5 mM MgCl2, 750 mM NaCl, 5 mM Na3VO4, filter the 5×-lysis buffer through 0.22 μm filter and store in aliquots at −80° C. The 5×DP buffer is diluted to 1×DP buffer containing 1 mM DTT and 25 mM NaF.
(§4) Stock solutions of test compounds were prepared in DMSO. In a 96 well plate 30 μl solution of diluted test compounds at 5 mM in DMSO were prepared. Starting with this solution a 1:3 dilution series (9 steps) was prepared. For control experiments (no test compound) a buffer containing 2% DMSO was used. Compound CZC00018052 served as a positive control (PI-103; Calbiochem catalogue number 528100).
(§5) Jurkat cells (ATCC catalogue number TIB-152 Jurkat, clone E6-1) were grown in 1 litre Spinner flasks (Integra Biosciences, #182101) in suspension in RPMI 1640 medium (Invitrogen, #21875-034) supplemented with 10% Fetal Bovine Serum (Invitrogen) at a density between 0.15×10^6 and 1.2×10^6 cells/ml. Cells were harvested by centrifugation, washed once with 1×PBS buffer (Invitrogen, #14190-094) and cell pellets were frozen in liquid nitrogen and subsequently stored at −80° C.
(§6) Jurkat cells were homogenized in a Potter S homogenizer in lysis buffer: 50 mM Tris-HCl, 0.8% NP40, 5% glycerol, 150 mM NaCl, 1.5 mM MgCl2, 25 mM NaF, 1 mM sodium vanadate, 1 mM DTT, pH 7.5. One complete EDTA-free tablet (protease inhibitor cocktail, Roche Diagnostics, 1873580) per 25 ml buffer was added. The material was dounced 10 times using a mechanized POTTER S, transferred to 50 ml falcon tubes, incubated for 30 minutes on ice and spun down for 10 min at 20,000 g at 4° C. (10,000 rpm in Sorvall SLA600, precooled). The supernatant was transferred to an ultracentrifuge (UZ)-polycarbonate tube (Beckmann, 355654) and spun for 1 hour at 100.000 g at 4° C. (33.500 rpm in Ti50.2, precooled). The supernatant was transferred again to a fresh 50 ml falcon tube, the protein concentration was determined by a Bradford assay (BioRad) and samples containing 50 mg of protein per aliquot were prepared. The samples were immediately used for experiments or frozen in liquid nitrogen and stored frozen at −80° C.
(§7) Jurkat cell lysate (approximately 50 mg protein per plate) was thawed in a water bath at room temperature and then kept on ice. To the thawed cell lysate 1×DP 0.8% NP40 buffer containing protease inhibitors (1 tablet for 25 ml buffer; EDTA-free protease inhibitor cocktail; Roche Diagnostics 1873580) was added in order to reach a final protein concentration of 5 mg/ml total protein. The diluted cell lysate was stored on ice. […]

mTOR = biological target: T2, mTOR (Homo sapiens, UniProt P42345); experiment: mTOR kinobeads assay (dot blot detection); type: binding
T2 construct: endogenous in cells; host or cells: Jurkat cells (ATCC TIB-152, clone E6-1), lysate
Procedure: as §1, §2, §3, §4, §5, §6, §7

PI3Kβ = biological target: T3, PI3Kβ (Homo sapiens, UniProt P42338); experiment: kinobeads assay, PI3K beta (dot blot detection); type: binding; details: Table 4, read-out: Inhibition values (IC50) PI3Kb
T3 construct: endogenous in cells; host or cells: Jurkat cells (ATCC TIB-152) lysate, the only lysate described

[1] = biological target: T4, DNA-dependent protein kinase (DNA-PK) (Homo sapiens, UniProt P78527); experiment: kinobeads assay, DNA-PK (dot blot detection); type: binding
T4 construct: endogenous in cells; host or cells: Jurkat cells (ATCC TIB-152, clone E6-1), lysate
Procedure: as §1, §2, §3, §4, §5, §6, §7

PI3Kα = biological target: T5, PI3Kα (Homo sapiens, UniProt P42336); experiment: kinobeads assay, PI3K alpha (dot blot detection); type: binding; details: Table 4, read-out: Inhibition values (IC50) PI3Ka
T5 construct: endogenous in cells; host or cells: Jurkat cells (ATCC TIB-152) lysate, the only lysate described

PI3Kγ = biological target: T6, PI3Kγ (Homo sapiens, UniProt P48736); experiment: kinobeads assay, PI3K gamma (dot blot detection); type: binding; details: Table 4, read-out: Inhibition values (IC50) PI3Kg
T6 construct: endogenous in cells; host or cells: Jurkat cells (ATCC TIB-152) lysate, the only lysate described

[2] = system: S6RP serine-240/244 phosphorylation in HEK293T/17 cells; experiment: In vitro phospho-S6 cellular assay (pS6RP S240/244); type: cell-based; details: Homo sapiens, Table 6, 2 hours, S6RP Ser240/244, read-out: pS6 (phospho-S6 cell assay data, activity level)
Text: In Vitro Phospho-S6 and Phospho-Akt Cellular Assay
Activation of mTOR signaling results in phosphorylation of several downstream targets. In cells, mTOR exists in two different protein complexes. The mTOR Complex-1 (mTORC1) phosphorylates and activates S6 Kinase 1 (S6K1) and S6 Kinase 2 (S6K2) (also known as p70S6K) which then phosphorylate S6 Ribosomal Protein (S6RP) (also known as RPS6). S6RP is phosphorylated on serine 235, serine 236, serine 240 and serine 244 by both pS6K1 and pS6K2. The mTOR Complex-2 (mTORC2) phosphorylates AKT on serine 473 which activates the AKT signaling pathway.
The assay measures a test compound's inhibition of S6RP serine-240/244 phosphorylation and inhibition of Akt serine-473 phosphorylation in human embryonic kidney derived HEK293T/17 cells (ATCC CRL-11268).
The HEK293T/17 cell line is maintained in DMEM media (Invitrogen catalogue number 41965-039) supplemented with 10% FCS at 37° C. in a 5% CO2 humidified incubator.
Cells are seeded in 96-well plates at 40,000 cells/well (pS6RP S240/244 assay) or 80,000 cells/well (pAkt 5473 assay) in 90 μl growth media (DMEM, 2% FCS). Plates are incubated for 1 hour in a humidified incubator to allow the cells to adhere. Cells are treated with 8 concentrations of test compounds or DMSO alone for controls (final DMSO concentration 0.1%) and incubated at 37° C. for 2 hours. Then 20 μl of 5× concentrated lysis buffer (750 mM NaCl, 100 mM Tris pH7.4, 5 mM EDTA, 5 mM EGTA, 5% Triton X-100) is added, plates are sealed and incubated for 15 minutes at 4° C. with gentle shaking. After cell lysis, 25 μl cell lysate is transferred to a MesoScale plate coated with an antibody to pS6RP Ser240/244 (MesoScale Discovery K150DGD-3) or an antibody to pAkt Ser 473 (MesoScale Discovery K151DGD-3). Plates have been blocked before by incubation with 150 μl MesoScale Discovery Blocking Solution-A for 1 hour at room temperature followed by washing with 150 μl 1× Tris wash buffer per well. After the transfer of the cell lysate to the MSD plate, the pS6RP (or pAkt) protein is captured on the coated antibody by incubation at room temperature for 1 hour with gentle shaking. After the capture step the plate is washed three times with 150 μl of 1× Tris wash buffer per well. Then 25 μl detection antibody conjugated with a Sulfo-Tag is added and incubated for 1 hour at room temperature with gentle shaking. Subsequently the antibody solution is removed and the plate is washed 3 times with 150 μl 1× Tris wash buffer per well and 150 μl Read buffer is added. The plates are analysed on a MSD 2400 Plate Reader (MesoScale Discovery). Data analysis is performed using nonlinear regression for a sigmoidal dose-response with a variable slope.

[3] = Table 2, Jurkat cell lysate, read-out: Inhibition values (IC50) PI3Kd
[4] = Table 4, read-out: Inhibition values (IC50) PI3Kd
[5] = Table 2, Jurkat cell lysate, read-out: Inhibition values (IC50) mTor
[6] = Table 4, read-out: Inhibition values (IC50) mTOR
[7] = Table 2, Jurkat cell lysate, read-out: Inhibition values (IC50) DNAPK
[8] = Table 4, read-out: Inhibition values (IC50) DNAPK

T5 sequence (P42336 whole entry): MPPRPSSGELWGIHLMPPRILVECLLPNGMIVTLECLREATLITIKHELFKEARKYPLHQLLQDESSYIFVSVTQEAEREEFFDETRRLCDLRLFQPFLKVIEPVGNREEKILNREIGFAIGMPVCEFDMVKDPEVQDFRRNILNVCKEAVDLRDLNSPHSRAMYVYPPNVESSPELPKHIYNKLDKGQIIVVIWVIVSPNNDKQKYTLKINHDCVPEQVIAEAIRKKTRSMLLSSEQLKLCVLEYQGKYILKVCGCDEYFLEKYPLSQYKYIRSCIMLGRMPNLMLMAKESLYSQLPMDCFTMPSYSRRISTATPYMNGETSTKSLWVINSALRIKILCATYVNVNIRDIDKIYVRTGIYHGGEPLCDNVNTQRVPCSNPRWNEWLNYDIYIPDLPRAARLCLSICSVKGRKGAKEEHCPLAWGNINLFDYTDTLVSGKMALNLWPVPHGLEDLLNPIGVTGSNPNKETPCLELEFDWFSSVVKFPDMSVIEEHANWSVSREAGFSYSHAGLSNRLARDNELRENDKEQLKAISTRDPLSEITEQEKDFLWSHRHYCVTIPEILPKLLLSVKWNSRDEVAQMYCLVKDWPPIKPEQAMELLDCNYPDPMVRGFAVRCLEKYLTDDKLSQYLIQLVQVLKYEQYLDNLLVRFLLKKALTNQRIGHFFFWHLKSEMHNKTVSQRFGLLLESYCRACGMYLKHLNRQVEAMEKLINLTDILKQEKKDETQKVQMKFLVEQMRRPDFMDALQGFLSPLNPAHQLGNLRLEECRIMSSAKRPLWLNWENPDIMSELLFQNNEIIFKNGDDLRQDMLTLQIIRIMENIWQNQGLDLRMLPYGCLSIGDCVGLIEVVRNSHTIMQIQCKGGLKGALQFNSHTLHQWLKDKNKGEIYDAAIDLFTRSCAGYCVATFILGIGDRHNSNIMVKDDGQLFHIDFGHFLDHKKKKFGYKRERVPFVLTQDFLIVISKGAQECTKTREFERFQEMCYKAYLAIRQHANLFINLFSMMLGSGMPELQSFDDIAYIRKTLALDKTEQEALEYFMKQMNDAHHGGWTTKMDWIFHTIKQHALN
T5 sequence (P27986 whole entry partner): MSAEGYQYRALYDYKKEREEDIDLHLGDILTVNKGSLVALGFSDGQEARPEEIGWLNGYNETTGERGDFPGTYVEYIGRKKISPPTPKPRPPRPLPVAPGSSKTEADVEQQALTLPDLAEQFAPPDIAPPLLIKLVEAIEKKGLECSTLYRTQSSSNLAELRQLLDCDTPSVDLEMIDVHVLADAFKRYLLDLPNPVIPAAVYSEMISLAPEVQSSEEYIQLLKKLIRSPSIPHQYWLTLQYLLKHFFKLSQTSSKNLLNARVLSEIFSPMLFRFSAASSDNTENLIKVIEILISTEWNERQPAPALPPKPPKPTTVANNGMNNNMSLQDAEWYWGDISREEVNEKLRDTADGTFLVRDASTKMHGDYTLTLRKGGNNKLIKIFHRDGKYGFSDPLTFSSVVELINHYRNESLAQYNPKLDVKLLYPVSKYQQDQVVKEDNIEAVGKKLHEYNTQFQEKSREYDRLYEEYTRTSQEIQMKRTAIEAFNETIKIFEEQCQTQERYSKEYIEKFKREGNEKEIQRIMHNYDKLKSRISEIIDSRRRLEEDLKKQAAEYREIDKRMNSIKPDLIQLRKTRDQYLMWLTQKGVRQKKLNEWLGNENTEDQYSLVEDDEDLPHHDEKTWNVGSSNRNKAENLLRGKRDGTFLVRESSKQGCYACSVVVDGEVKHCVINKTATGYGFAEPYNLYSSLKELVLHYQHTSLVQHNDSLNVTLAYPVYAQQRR
T6 sequence (P48736 whole entry): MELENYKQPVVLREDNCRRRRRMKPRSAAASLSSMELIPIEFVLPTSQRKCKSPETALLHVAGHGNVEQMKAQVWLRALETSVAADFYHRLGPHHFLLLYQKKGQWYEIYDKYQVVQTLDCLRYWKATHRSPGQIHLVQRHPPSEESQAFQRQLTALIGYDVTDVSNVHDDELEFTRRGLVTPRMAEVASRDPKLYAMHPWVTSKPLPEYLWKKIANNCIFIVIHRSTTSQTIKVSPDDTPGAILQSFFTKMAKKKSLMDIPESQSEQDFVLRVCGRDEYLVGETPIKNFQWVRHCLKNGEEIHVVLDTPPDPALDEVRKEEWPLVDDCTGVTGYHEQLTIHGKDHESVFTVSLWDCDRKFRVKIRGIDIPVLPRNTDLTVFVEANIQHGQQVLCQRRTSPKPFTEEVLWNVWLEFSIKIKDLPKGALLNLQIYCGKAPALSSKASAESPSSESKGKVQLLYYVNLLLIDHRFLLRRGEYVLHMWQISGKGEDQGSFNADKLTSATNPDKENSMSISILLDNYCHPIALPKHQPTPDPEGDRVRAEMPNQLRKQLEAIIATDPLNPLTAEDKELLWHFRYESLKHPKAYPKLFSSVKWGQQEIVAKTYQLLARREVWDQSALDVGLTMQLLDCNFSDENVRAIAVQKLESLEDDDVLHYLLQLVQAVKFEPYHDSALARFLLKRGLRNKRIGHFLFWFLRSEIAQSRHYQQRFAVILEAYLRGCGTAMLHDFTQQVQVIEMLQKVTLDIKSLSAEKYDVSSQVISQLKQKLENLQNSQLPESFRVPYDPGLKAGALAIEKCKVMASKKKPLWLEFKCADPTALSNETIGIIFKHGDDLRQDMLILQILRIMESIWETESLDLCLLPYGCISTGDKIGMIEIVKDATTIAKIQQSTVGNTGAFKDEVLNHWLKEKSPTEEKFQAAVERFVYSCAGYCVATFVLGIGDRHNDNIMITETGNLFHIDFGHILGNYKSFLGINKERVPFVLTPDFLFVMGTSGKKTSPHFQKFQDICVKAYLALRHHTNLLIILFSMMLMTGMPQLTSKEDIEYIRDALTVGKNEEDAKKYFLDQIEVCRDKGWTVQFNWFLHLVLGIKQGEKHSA
T3 sequence (P42338 whole entry): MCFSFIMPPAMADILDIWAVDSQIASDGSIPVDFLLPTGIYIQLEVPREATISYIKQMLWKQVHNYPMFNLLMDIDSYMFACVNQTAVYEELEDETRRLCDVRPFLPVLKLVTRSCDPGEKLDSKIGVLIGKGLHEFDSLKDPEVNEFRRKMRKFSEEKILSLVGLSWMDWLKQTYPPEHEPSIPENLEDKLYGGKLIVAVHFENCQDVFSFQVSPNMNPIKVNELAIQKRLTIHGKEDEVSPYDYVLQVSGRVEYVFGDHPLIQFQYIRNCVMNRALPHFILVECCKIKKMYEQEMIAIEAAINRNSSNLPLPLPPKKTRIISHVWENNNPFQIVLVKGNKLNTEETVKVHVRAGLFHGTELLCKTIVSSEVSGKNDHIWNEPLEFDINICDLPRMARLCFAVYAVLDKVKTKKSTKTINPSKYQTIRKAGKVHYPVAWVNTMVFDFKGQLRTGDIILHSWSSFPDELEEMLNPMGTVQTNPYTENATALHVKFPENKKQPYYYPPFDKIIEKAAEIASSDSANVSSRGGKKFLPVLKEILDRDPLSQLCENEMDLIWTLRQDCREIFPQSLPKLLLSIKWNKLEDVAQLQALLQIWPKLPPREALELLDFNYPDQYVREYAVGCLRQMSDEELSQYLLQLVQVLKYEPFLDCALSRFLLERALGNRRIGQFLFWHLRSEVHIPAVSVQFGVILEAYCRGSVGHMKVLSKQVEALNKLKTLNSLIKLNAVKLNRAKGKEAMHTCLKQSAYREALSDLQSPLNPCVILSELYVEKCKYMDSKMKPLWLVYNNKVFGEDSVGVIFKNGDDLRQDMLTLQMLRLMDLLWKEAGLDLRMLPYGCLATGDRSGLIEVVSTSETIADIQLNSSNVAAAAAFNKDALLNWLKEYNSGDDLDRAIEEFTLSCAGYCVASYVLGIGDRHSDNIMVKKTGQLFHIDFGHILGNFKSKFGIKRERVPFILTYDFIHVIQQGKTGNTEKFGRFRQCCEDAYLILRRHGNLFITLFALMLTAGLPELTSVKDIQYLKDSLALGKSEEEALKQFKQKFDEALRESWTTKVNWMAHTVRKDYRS
T3 sequence (P27986 whole entry partner): as the sequence (P27986 whole entry partner) above
T1 sequence (O00329 whole entry): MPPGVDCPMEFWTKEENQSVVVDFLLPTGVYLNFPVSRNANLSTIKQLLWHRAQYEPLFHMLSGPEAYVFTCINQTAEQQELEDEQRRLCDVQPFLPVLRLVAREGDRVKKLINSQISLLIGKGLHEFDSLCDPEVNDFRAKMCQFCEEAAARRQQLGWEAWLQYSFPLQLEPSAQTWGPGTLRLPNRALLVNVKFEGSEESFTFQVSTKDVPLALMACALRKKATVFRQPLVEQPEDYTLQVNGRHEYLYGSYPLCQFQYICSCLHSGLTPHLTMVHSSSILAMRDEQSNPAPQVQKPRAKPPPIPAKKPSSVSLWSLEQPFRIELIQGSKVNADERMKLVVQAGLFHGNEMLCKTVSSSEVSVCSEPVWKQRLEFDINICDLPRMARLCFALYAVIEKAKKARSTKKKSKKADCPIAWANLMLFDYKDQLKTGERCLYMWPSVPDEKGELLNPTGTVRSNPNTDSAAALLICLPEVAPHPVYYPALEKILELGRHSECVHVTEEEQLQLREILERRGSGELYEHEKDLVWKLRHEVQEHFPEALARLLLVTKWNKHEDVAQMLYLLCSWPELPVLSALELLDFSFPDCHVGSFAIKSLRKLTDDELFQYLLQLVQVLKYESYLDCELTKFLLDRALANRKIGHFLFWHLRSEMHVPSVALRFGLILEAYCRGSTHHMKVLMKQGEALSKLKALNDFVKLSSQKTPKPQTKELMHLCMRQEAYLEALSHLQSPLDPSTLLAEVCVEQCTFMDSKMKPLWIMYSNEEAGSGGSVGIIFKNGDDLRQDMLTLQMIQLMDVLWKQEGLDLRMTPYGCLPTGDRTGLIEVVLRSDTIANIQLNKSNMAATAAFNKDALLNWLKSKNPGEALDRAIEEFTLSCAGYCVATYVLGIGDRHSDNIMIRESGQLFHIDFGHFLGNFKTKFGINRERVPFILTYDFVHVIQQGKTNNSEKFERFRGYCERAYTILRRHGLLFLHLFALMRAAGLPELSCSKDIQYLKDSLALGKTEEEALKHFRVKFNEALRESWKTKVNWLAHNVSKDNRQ
T1 sequence (P27986 whole entry partner): as the sequence (P27986 whole entry partner) above

Row | SMILES | IC50 (PI3K delta (PI3Kd); [3]) | IC50 (PI3K delta (PI3Kd); [4]) | IC50 (mTOR; [5]) | IC50 (mTOR; [6]) | IC50 (PI3Kβ) | IC50 [1, 7] | IC50 [1, 8] | IC50 (PI3Kα) | IC50 (PI3Kγ) | IC50 [2]
1 | CCNC(=O)Nc1ccc(-c2nccc(N3CCOC[C@@H]3C)n2)cc1 [Example 37, (S)-1-ethyl-3-(4-(4-(3-methylmorpholino)pyrimidin-2-yl)phenyl)urea] | ≥ 10 µM | ≥ 10 µM | 1000 to 10000 nM | 100 to 1000 nM | ≥ 10 µM | ≥ 10 µM | ≥ 10 µM | ≥ 10 µM | ≥ 10 µM | 100 to 1000 nM
2 | CCNC(=O)Nc1ccc(-c2ccnc(N3CCOC[C@@H]3C)n2)cc1 [Example 38, (S)-1-ethyl-3-(4-(2-(3-methylmorpholino)pyrimidin-4-yl)phenyl)urea] | ≥ 10 µM | ≥ 10 µM | 1000 to 10000 nM | 1000 to 10000 nM | ≥ 10 µM | ≥ 10 µM | ≥ 10 µM | ≥ 10 µM | ≥ 10 µM | 100 to 1000 nM
3 | C[C@H]1COCCN1c1nccc(-c2ccc(NC(=O)NC3CC3)cc2)n1 [Example 39, (S)-1-cyclopropyl-3-(4-(2-(3-methylmorpholino)pyrimidin-4-yl)phenyl)urea] | ≥ 10 µM | ≥ 10 µM | 1000 to 10000 nM | 1000 to 10000 nM | ≥ 10 µM | ≥ 10 µM | ≥ 10 µM | ≥ 10 µM | ≥ 10 µM | 100 to 1000 nM
4 | C[C@H]1COCCN1c1nc(-c2ccc(NC(=O)NC3CC3)cc2)cc(-c2cccnc2[S+](C)[O-])n1 (stereo partly drawn) [Example 45, 1-cyclopropyl-3-(4-(2-((S)-3-methylmorpholino)-6-(2-(methylsulfinyl)pyridin-3-yl)pyrimidin-4-yl)phenyl)urea] | 1 to 10 µM | 1 to 10 µM | < 100 nM | < 100 nM | 1 to 10 µM | ≥ 10 µM | ≥ 10 µM | 1 to 10 µM | ≥ 10 µM | 100 to 1000 nM
5 | O=C(Nc1ccc(-c2nccc(N3CC4CCC(C3)O4)n2)cc1)NC1CC1 [Example 48, 1-(4-(4-(8-oxa-3-azabicyclo[3.2.1]octan-3-yl)pyrimidin-2-yl)phenyl)-3-cyclopropylurea] | ≥ 10 µM | ≥ 10 µM | 100 to 1000 nM | 100 to 1000 nM | ≥ 10 µM | 1 to 10 µM | 1 to 10 µM | ≥ 10 µM | ≥ 10 µM | 100 to 1000 nM

— US9249129B2, “Morpholino substituted urea derivatives as mTOR inhibitors” (CELLZOME LIMITED, priority 2010, dated 2016)
